63 molecules from PMC6792352, “Limited Chemical Structural Diversity Found to Modulate Thyroid Hormone Receptor in the Tox21 Chemical Library” (Environmental Health Perspectives, 2019) can be followed below.

This data set in a line: in vitro. The conditions noted are these: rat, gh3-tre-luc cells, AC50 (uM) modified / 1000.

Counter-ions that a name gives are not always drawn.

`CC(C)(CO)CO` [2,2-Dimethylpropane-1,3-diol] had a CC50 at 24 h above 90 µM. The molecule `CNC[C@H](O)[C@@H](O)[C@H](O)[C@H](O)CO` [Meglumine] registered a CC50 at 24 h above 90 µM. In the case of `CC12CC1(C)C(=O)N(c1cc(Cl)cc(Cl)c1)C2=O` (stereo not drawn) [Procymidone] it was above 90 µM.

As for `COC(=O)CC(=O)OC` [Dimethyl malonate], the CC50 at 24 h was above 100 µM.

Molecule `O=c1cc[nH]c(=O)[nH]1` [Uracil] registered a CC50 at 24 h above 90 µM.

The molecule `COc1cc(/C=C2\CCC/C(=C\c3ccc(O)c(OC)c3)C2=O)ccc1O` [Cyclovalone] came in with a CC50 at 24 h of 7.98 µM. In the case of `COc1ccc(N=Nc2cc(C)c(N=Nc3ccc(S(=O)(=O)O)cc3)cc2OC)cc1` [Acid Orange 156] it was 64.4 µM; in that of `C[C@@H](c1ncncc1F)[C@](O)(Cn1cncn1)c1ccc(F)cc1F` [Voriconazole], above 50 µM. On to `Cc1ccc(N)nc1` [5-Methylpyridin-2-amine], for which the CC50 at 24 h was above 90 µM. Under `CC1=CCC2C(C1)C2(C)C` (stereo not drawn) [3-Carene] stands above 90 µM; under `O=C1CCc2ccccc2O1` [3,4-Dihydrocoumarin], above 90 µM; under `O=C(CBr)OCc1ccccc1` [Benzyl bromoacetate], above 90 µM. On to `CCCCCCCCCCCCCC(=O)OC` [Methyl tetradecanoate], for which the CC50 at 24 h is above 90 µM. `CCCCNc1ccccc1` [N-Butylaniline] registered a CC50 at 24 h above 90 µM.

`CCCCC(CC)COP(=O)(OCC(CC)CCCC)OCC(CC)CCCC` (stereo not drawn) [Tris(2-ethylhexyl) phosphate] showed a 50% cytotoxic concentration (CC50) at 24 h above 90 µM. `Cc1cc(O)cc2c1O[C@](C)(CCC[C@H](C)CCC[C@H](C)CCCC(C)C)CC2` [D-delta-Tocopherol] had a CC50 at 24 h above 50 µM.

The molecule `C[Si](C)(C)O[Si](O)(O)O` [Trimethylsilyl silicate] had a 50% cytotoxic concentration (CC50) at 24 h above 90 µM. In turn, `CC(C)(C)NC[C@H](O)COc1cccc2c1CCCC2=O` [Levobunolol hydrochloride] showed a CC50 at 24 h above 20 µM. In turn, `CN(CCCN1c2ccccc2CCc2ccccc21)CC(=O)c1ccc(Cl)cc1` [Lofepramine hydrochloride] had a CC50 at 24 h of 22 µM. In the case of `O=C1c2ccccc2-c2ccccc21` [9-Fluorenone] it was above 90 µM; in that of `O=C(NCCNCC(O)COc1ccc(O)cc1)N1CCOCC1` (stereo not drawn) [Xamoterol], above 50 µM; in that of `c1ccc2c(c1)CCCC2` [Tetralin], above 90 µM. `O=CC1CC=CCC1` (stereo not drawn) [3-Cyclohexene-1-carboxaldehyde] registered a CC50 at 24 h above 90 µM. For `O=C(O)c1cccc(O)c1` [3-Hydroxybenzoic acid], the CC50 at 24 h was above 90 µM.

Molecule `O=C(O)Cn1c(=O)n(Cc2ccc(Br)cc2F)c(=O)c2ccc(Cl)cc21` [Zenarestat] had a half-maximal cytotoxic concentration (CC50) at 24 h above 90 µM. For `C=C(C)C(=O)OCC1CCCO1` (stereo not drawn) [Tetrahydrofurfuryl methacrylate], the CC50 at 24 h was above 90 µM. Molecule `CCOCC(O)COc1ccc(NC(=O)CC[S+](C)C)cc1` (stereo not drawn) [Suplatast tosylate] displayed a CC50 at 24 h above 50 µM. Under `CC(=O)c1cc(C)oc1C` [3-Acetyl-2,5-dimethylfuran] stands above 90 µM; under `C[C@H]1[C@H](O)O[C@@H]2O[C@@]3(C)CC[C@H]4[C@H](C)CC[C@@H]1[C@@]24OO3` [Artenimol], 1.39 µM; under `CCCOC(=O)c1ccccc1` [Propyl benzoate], above 90 µM. Under `CN1C(C(=O)Nc2ccccn2)=C(O)c2sccc2S1(=O)=O` [Tenoxicam] stands above 20 µM; under `CCCCCCCCCC(=O)OCC` [Ethyl decanoate], above 90 µM; under `O=C(O)c1ccc(O)cc1O` [2,4-Dihydroxybenzoic acid], above 90 µM. In the case of `CCOC(=O)c1ncn2c1CN(C)C(=O)c1cc(F)ccc1-2` [Flumazenil] it was above 50 µM. On to `C=C(C)C(=O)OCCCCCCCCCCCC` [Dodecyl 2-methylacrylate], for which the CC50 at 24 h was above 90 µM. For the molecule `NC[C@H]1CC[C@H](C(=O)Oc2ccc(CCC(=O)O)cc2)CC1` [Cetraxate hydrochloride], the CC50 at 24 h is above 50 µM. As to `COc1cccc(OC)c1C(=O)O` [2,6-Dimethoxybenzoic acid], the CC50 at 24 h was above 90 µM.

`CC(C)CO` [2-Methyl-1-propanol] registered a CC50 at 24 h above 90 µM.

`CC(C)(CCl)C(=O)Cl` [3-Chloro-2,2-dimethylpropanoyl chloride] displayed a CC50 at 24 h above 90 µM. On to `c1ccc2occc2c1` [2,3-Benzofuran], for which the CC50 at 24 h is above 90 µM. On to `CC(C)CCCC(C)N` (stereo not drawn) [2-Amino-6-methylheptane], for which the CC50 at 24 h is above 50 µM. On to `O=C(CCCN1CCC(O)(c2cccc(C(F)(F)F)c2)CC1)c1ccc(F)cc1` [Trifluperidol hydrochloride], for which the CC50 at 24 h was found to be 24 µM. In turn, `CCN(C(=O)N(CC)c1ccccc1)c1ccccc1` [N,N'-Diethylcarbanilide] showed a CC50 at 24 h above 90 µM. Molecule `Cc1cccc2ccccc12` [1-Methylnaphthalene] yielded a CC50 at 24 h above 90 µM. In the case of `NCCN1CCOCC1` [2-Morpholinoethylamine] it was above 90 µM; in that of `Nc1ccc(Oc2ccc(N)cc2)cc1` [4,4'-Oxydianiline], above 90 µM. Molecule `COc1nc(C)nc(NC(=O)NS(=O)(=O)c2ccccc2OCCCl)n1` [Triasulfuron] displayed a CC50 at 24 h above 90 µM. Under `COCCOCCOCCOCCOCCO` [2,5,8,11,14-Pentaoxahexadecan-16-ol] stands above 90 µM; under `O=C(CCCCCCCCC#CI)Oc1ccccc1` [Phenyl 11-iodo-10-undecynoate], above 50 µM; under `c1ccc(B(c2ccccc2)c2ccccc2)cc1` [Triphenylborane], above 90 µM. In the case of `CCC/C=C(/C=O)CC` [2-Ethyl-2-hexenal] it was above 90 µM; in that of `CCCCCCCCCCCCCC[N+](C)(C)Cc1ccccc1` [Benzyldimethyltetradecylammonium chloride dihydrate], 10.5 µM.

As for `O=S(=O)(c1ccccc1)c1ccc(Cl)cc1` [4-Chlorophenyl phenyl sulfone], the CC50 at 24 h was above 90 µM. Under `CCC(=O)OC` [Methyl propanoate] stands above 90 µM; under `CCCCC` [Pentane], above 90 µM; under `C[N+](C)(C)CCO` [Cholin acetate], above 50 µM. In the case of `COc1cc(CC(C)N)cc(OC)c1OC` (stereo not drawn) [3,4,5-Trimethoxyamphetamine hydrochloride], the CC50 at 24 h is above 100 µM. Under `C=COC(C)=O` [Vinyl acetate] stands above 90 µM.

Consider `CCCCCCCCCCCCCCCC(=O)OC/C=C(C)/C=C/C=C(C)/C=C/C1=C(C)CCCC1(C)C` [Retinol palmitate], for which the CC50 at 24 h was above 50 µM.

Turning to `CCCCCCCCBr` [1-Bromooctane], the CC50 at 24 h is above 90 µM. In the case of `O=C(c1ccc(O)cc1O)c1ccc(O)cc1O` [2,2',4,4'-Tetrahydroxybenzophenone] it was above 90 µM; in that of `CC(C)Oc1ccccc1O` [2-Isopropoxyphenol], above 90 µM. Under `CC[C@H]1NC(=O)[C@@H](NC(=O)c2ncccc2O)[C@@H](C)OC(=O)[C@H](c2ccccc2)NC(=O)[C@@H]2CC(=O)CCN2C(=O)[C@H](Cc2ccccc2)N(C)C(=O)[C@@H]2CCCN2C1=O` [Virginiamycin S1] stands above 50 µM.
